How the values were obtained:
Type in all cases: in vivo
Italian ryegrass [1] = assay: Test Example 3: herbicidal effects in soil treatment; settings: dose 3.2 g/a
How it was run: (§1)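 Seeds were sown in sterilized diluvial soil and covered with about 1.5 cm of soil. Compounds, formulated as emulsifiable concentrates and diluted with water, were sprayed evenly over the soil surface at set doses in g/a. Herbicidal effect was scored on a rating scale three weeks later.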

large crabgrass [2] = assay: as above; settings: dose 3.2 g/a
How it was run: as §1

barnyardgrass [3] = assay: as above; settings: dose 3.2 g/a
How it was run: as §1

water foxtail [4] = assay: as above; settings: dose 3.2 g/a
How it was run: as §1

common chickweed [5] = assay: as above; settings: dose 3.2 g/a
How it was run: as §1

common ragweed [6] = assay: as above; settings: dose 3.2 g/a
How it was run: as §1

giant foxtail [7] = assay: as above; settings: dose 3.2 g/a
How it was run: as §1

wild oat [8] = assay: as above; settings: dose 3.2 g/a
How it was run: as §1

velvetleaf [9] = assay: as above; settings: dose 3.2 g/a
How it was run: as §1

redroot pigweed [10] = assay: as above; settings: dose 3.2 g/a
How it was run: as §1

beadstraw [11] = assay: as above; settings: dose 3.2 g/a
How it was run: as §1

common lambsquater [12] = assay: as above; settings: dose 3.2 g/a
How it was run: as §1

ducksalad [13] = assay: Test Example 1: herbicidal effects in preemergence treatment under submerged conditions; settings: dose 2.52 g/a
How it was run: (§2)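 Scoring 0 (<5% mortality) to 5 (≥90%) was done three weeks after preemergence application to the water surface of submerged (4 cm) alluvial soil, doses given as g per are. Weeds were seeded and 2.5-leaf rice transplanted on the treatment day; greenhouse at 25–30 °C.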

barnyardgrass [14] = assay: as above; settings: dose 2.52 g/a
How it was run: as §2

bulrush [15] = assay: as above; settings: dose 2.52 g/a
How it was run: as §2

ducksalad [16] = assay: Test Example 2: herbicidal effects during the vegetation period under submerged conditions; settings: treatment during the vegetation period under submerged conditions; dose 2.52 g/a
How it was run: (§3)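 Barnyardgrass, bulrush and ducksalad were co-sown in alluvial soil flooded to 4 cm and grown in a greenhouse at 25 to 30° C. At the 1- or 2-leaf stage, water-diluted emulsifiable concentrates went onto the water surface at set doses (g/a). Herbicidal effect was scored three weeks later on a graded scale.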

barnyardgrass [17] = assay: as above; settings: treatment during the vegetation period under submerged conditions; dose 2.52 g/a
How it was run: as §3

bulrush [18] = assay: as above; settings: treatment during the vegetation period under submerged conditions; dose 2.52 g/a
How it was run: as §3

transplanted rice = assay: Test Example 1: preemergence treatment under submerged conditions, effect on crop; settings: dose 2.52 g/a
How it was run: as §2

Italian ryegrass [19] = assay: Test Example 4: herbicidal effect in foliage treatment; settings: dose 3.2 g/a, three weeks after application
How it was run: (§4)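 Seeds were spot-sown in boxes of sterilized diluvial soil and raised in a greenhouse (25 to 30° C) for 14 days before a single foliar application. Compounds were applied as emulsifiable concentrates diluted with water, at predetermined doses in g/a. Injury was graded three weeks post-spray.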

large crabgrass [20] = assay: as above; settings: dose 3.2 g/a, three weeks after application
How it was run: as §4

barnyardgrass [21] = assay: as above; settings: dose 3.2 g/a, three weeks after application
How it was run: as §4

water foxtail [22] = assay: as above; settings: dose 3.2 g/a, three weeks after application
How it was run: as §4

common chickweed [23] = assay: as above; settings: dose 3.2 g/a, three weeks after application
How it was run: as §4

common ragweed [24] = assay: as above; settings: dose 3.2 g/a, three weeks after application
How it was run: as §4

giant foxtail [25] = assay: as above; settings: dose 3.2 g/a, three weeks after application
How it was run: as §4

wild oat [26] = assay: as above; settings: dose 3.2 g/a, three weeks after application
How it was run: as §4

velvetleaf [27] = assay: as above; settings: dose 3.2 g/a, three weeks after application
How it was run: as §4

redroot pigweed [28] = assay: as above; settings: dose 3.2 g/a, three weeks after application
How it was run: as §4

beadstraw [29] = assay: as above; settings: dose 3.2 g/a, three weeks after application
How it was run: as §4

posumbu knotweed = assay: as above; settings: dose 3.2 g/a, three weeks after application
How it was run: as §4

common lambsquater [30] = assay: as above; settings: dose 3.2 g/a, three weeks after application
How it was run: as §4

| SMILES | H: Italian ryegrass, herbicidal effect (evaluation scale 0-5) (Italian ryegrass [1]) | D: large crabgrass, herbicidal effect (evaluation scale 0-5) (large crabgrass [2]) | A: barnyardgrass, herbicidal effect (evaluation scale 0-5) (barnyardgrass [3]) | G: water foxtail, herbicidal effect (evaluation scale 0-5) (water foxtail [4]) | N: common chickweed, herbicidal effect (evaluation scale 0-5) (common chickweed [5]) | J: common ragweed, herbicidal effect (evaluation scale 0-5) (common ragweed [6]) | E: giant foxtail, herbicidal effect (evaluation scale 0-5) (giant foxtail [7]) | F: wild oat, herbicidal effect (evaluation scale 0-5) (wild oat [8]) | I: velvetleaf, herbicidal effect (evaluation scale 0-5) (velvetleaf [9]) | K: redroot pigweed, herbicidal effect (evaluation scale 0-5) (redroot pigweed [10]) | O: beadstraw, herbicidal effect (evaluation scale 0-5) (beadstraw [11]) | L: common lambsquater, herbicidal effect (evaluation scale 0-5) (common lambsquater [12]) | C: ducksalad, herbicidal effect (evaluation scale 0-5) (ducksalad [13]) | A: barnyardgrass, herbicidal effect (evaluation scale 0-5) (barnyardgrass [14]) | B: bulrush, herbicidal effect (evaluation scale 0-5) (bulrush [15]) | C: ducksalad, herbicidal effect (evaluation scale 0-5) (ducksalad [16]) | A: barnyardgrass, herbicidal effect (evaluation scale 0-5) (barnyardgrass [17]) | B: bulrush, herbicidal effect (evaluation scale 0-5) (bulrush [18]) | a: transplanted rice, effect on crop (evaluation scale 0-5) (transplanted rice) | H: Italian ryegrass, herbicidal effect (Italian ryegrass [19]) | other results |
| --- | --- | --- | --- | --- | --- | --- | --- | --- | --- | --- | --- | --- | --- | --- | --- | --- | --- | --- | --- | --- | --- |
| CCCCOC(=O)N(c1ccccc1CN1COC(C)(C)CC1=O)S(=O)(=O)C(F)(F)F [II-25] | 1 (mortality of at least 5% and less than 20%) | 4 (mortality of at least 70% and less than 90%) | 4 (mortality of at least 70% and less than 90%) | 5 (mortality of 90% or above (nearly complete death)) | 4 (mortality of at least 70% and less than 90%) | 4 (mortality of at least 70% and less than 90%) | 3 (mortality of at least 40% and less than 70%) | 0 (mortality of less than 5% (almost ineffective)) | 5 (mortality of 90% or above (nearly complete death)) | 0 (mortality of less than 5% (almost ineffective)) | 5 (mortality of 90% or above (nearly complete death)) | 0 (mortality of less than 5% (almost ineffective)) | 5 (mortality of 90% or above (nearly complete death)) | 5 (mortality of 90% or above (nearly complete death)) | 5 (mortality of 90% or above (nearly complete death)) | 5 (mortality of 90% or above (nearly complete death)) | 5 (mortality of 90% or above (nearly complete death)) | 5 (mortality of 90% or above (nearly complete death)) | 0 (mortality of less than 5% (almost ineffective)) | 0 (mortality of less than 5% (almost ineffective)) | D: large crabgrass, herbicidal effect (large crabgrass [20]): 5 (mortality of 90% or above (nearly complete death)); A: barnyardgrass, herbicidal effect (barnyardgrass [21]): 5 (mortality of 90% or above (nearly complete death)); G: water foxtail, herbicidal effect (water foxtail [22]): 5 (mortality of 90% or above (nearly complete death)); N: common chickweed, herbicidal effect (common chickweed [23]): 4 (mortality of at least 70% and less than 90%); J: common ragweed, herbicidal effect (common ragweed [24]): 3 (mortality of at least 40% and less than 70%); E: giant foxtail, herbicidal effect (giant foxtail [25]): 5 (mortality of 90% or above (nearly complete death)); F: wild oat, herbicidal effect (wild oat [26]): 0 (mortality of less than 5% (almost ineffective)); I: velvetleaf, herbicidal effect (velvetleaf [27]): 4 (mortality of at least 70% and less than 90%); K: redroot pigweed, herbicidal effect (redroot pigweed [28]): 0 (mortality of less than 5% (almost ineffective)); O: beadstraw, herbicidal effect (beadstraw [29]): 5 (mortality of 90% or above (nearly complete death)); M: posumbu knotweed, herbicidal effect (posumbu knotweed): 1 (mortality of at least 5% and less than 20%); L: common lambsquater, herbicidal effect (common lambsquater [30]): 1 (mortality of at least 5% and less than 20%) |
| COC(=O)N(c1ccccc1CN1COC(C)(C)C(F)C1=O)S(=O)(=O)C(F)(F)F (stereo not shown) [II-33] | 4 (mortality of at least 70% and less than 90%) | 5 (mortality of 90% or above (nearly complete death)) | 5 (mortality of 90% or above (nearly complete death)) | 5 (mortality of 90% or above (nearly complete death)) | 3 (mortality of at least 40% and less than 70%) | 5 (mortality of 90% or above (nearly complete death)) | 5 (mortality of 90% or above (nearly complete death)) | 0 (mortality of less than 5% (almost ineffective)) | 4 (mortality of at least 70% and less than 90%) | 3 (mortality of at least 40% and less than 70%) | 4 (mortality of at least 70% and less than 90%) | 0 (mortality of less than 5% (almost ineffective)) | 5 (mortality of 90% or above (nearly complete death)) | 5 (mortality of 90% or above (nearly complete death)) | 5 (mortality of 90% or above (nearly complete death)) | 5 (mortality of 90% or above (nearly complete death)) | 5 (mortality of 90% or above (nearly complete death)) | 5 (mortality of 90% or above (nearly complete death)) | 0 (mortality of less than 5% (almost ineffective)) | 4 (mortality of at least 70% and less than 90%) | D: large crabgrass, herbicidal effect (large crabgrass [20]): 4 (mortality of at least 70% and less than 90%); A: barnyardgrass, herbicidal effect (barnyardgrass [21]): 4 (mortality of at least 70% and less than 90%); G: water foxtail, herbicidal effect (water foxtail [22]): 5 (mortality of 90% or above (nearly complete death)); N: common chickweed, herbicidal effect (common chickweed [23]): 3 (mortality of at least 40% and less than 70%); J: common ragweed, herbicidal effect (common ragweed [24]): 3 (mortality of at least 40% and less than 70%); E: giant foxtail, herbicidal effect (giant foxtail [25]): 4 (mortality of at least 70% and less than 90%); F: wild oat, herbicidal effect (wild oat [26]): 0 (mortality of less than 5% (almost ineffective)); I: velvetleaf, herbicidal effect (velvetleaf [27]): 3 (mortality of at least 40% and less than 70%); K: redroot pigweed, herbicidal effect (redroot pigweed [28]): 1 (mortality of at least 5% and less than 20%); O: beadstraw, herbicidal effect (beadstraw [29]): 4 (mortality of at least 70% and less than 90%); M: posumbu knotweed, herbicidal effect (posumbu knotweed): 3 (mortality of at least 40% and less than 70%); L: common lambsquater, herbicidal effect (common lambsquater [30]): 0 (mortality of less than 5% (almost ineffective)) |

From patent publication US20120029187A1, “HALOALKYLSULFONANILIDE DERIVATIVE” (Nissan Chemical Industries, Ltd., priority 2009, published 2012)
